The MIC is the least concentration at which growth counts as inhibited.

Consider one molecule from paper PMC10740499, “Benzodioxane–Benzamides as FtsZ Inhibitors: Effects of Linker’s Functionalization on Gram-Positive Antimicrobial Activity” (Antibiotics, 2023).

Data set [1] relates to methicillin-sensitive S. aureus (MSSA, ATCC29213). As to the kind of experiment: MIC, broth dilution, MSSA ATCC 29213. The class given is cell-based, Staphylococcus aureus. The note with it: Staphylococcus aureus. The source says:
(§1) As described in our previous work, we evaluated all the compounds mentioned above on different S. aureus strains. We tested on both methicillin-sensitive S. aureus (MSSA, ATCC29213) and two clinical isolates of S. aureus showing multi-drug resistance (MDRSA). […] We analyzed the MICs and, if the antibacterial activity was promising, we also determined the percentage of cytotoxicity using the MTT assay on human MRC-5 cells and reported it as TD90. The results of antibacterial properties of all of the synthesized derivatives are shown in Table 1, and they are compared with their reference compounds FZ14, FZ88, and FZ100.
Gram-positive methicillin-sensitive Staphylococcus aureus (MSSA, ATCC 29213) was grown in Luria–Bertani broth (LB), as already described in our papers.
(§2) The detailed protocol is identical to what was previously reported. Briefly, the antimicrobial testing of compounds followed the Clinical and Laboratory Standards Institute and European Committee for Antimicrobial Susceptibility Testing guidelines. A bacterial suspension equivalent to 0.5 McFarland turbidity standard was diluted in cation-adjusted Mueller Hinton broth to prepare a fresh bacterial culture of 10^5 CFU/mL. Compounds dissolved in DMSO were combined with the bacteria and incubated for 20 h at 35 °C. MIC values were determined visually as the lowest compound dilution with no turbidity. MICs were determined against methicillin-sensitive and methicillin-resistant S. aureus strains (11.7 and 12.1). Every assay was performed in triplicate, and for each series of experiments, both positive (tetracycline) and negative (no compounds) controls were included.

The test system of data set [2] is MDRSA 11.7. Description: MIC, broth dilution, MDRSA 11.7. The class given is cell-based, Staphylococcus aureus. The note with it: Staphylococcus aureus, MDRSA 11.7 clinical isolate.
Text: as §1, §2

The subject of data set [3] is FtsZ rings in live B. subtilis WM 5126 cells expressing GFP-ZapA. As to the kind of experiment: GFP-ZapA fluorescence microscopy of FtsZ assembly. The class given is cell-based, Bacillus subtilis. The note with it: 0.3 µg/mL (0.8 µM), 90 min. The procedure: To test if the differential effects of FZ116 and FZ117 enantiomers could be detected as FtsZ assembly changes in B. subtilis cells, we visualized GFP-ZapA patterns after growth in inhibitory concentrations of FZ116 and FZ117 (0.3 µg/mL or 0.8 µM). Cells grown with no added compound grew as typical single bacilli and short chains, with well- defined Z rings clearly visible (Figure 5, left panel, single yellow arrows). […] This conversion of FtsZ rings into a speckle pattern was observed previously, both with FZ100 [14] and with the original benzamide derivatives.
For fluorescence microscopy, overnight cultures of WM5126 were grown at 33 °C (after 1:200 dilution overnight and addition of 0.1% xylose to induce expression of GFP-ZapA) for ~2 h until reaching an OD600 of ~0.2 and then treated with no drug or with compounds FZ116 or FZ117 diluted in water to a final concentration of 0.3 µg/mL (0.8 µM) from stock solutions of 30 mg/mL in DMSO. After the addition of the compounds, the cultures were grown for 90 min while shaking at 33 °C prior to spotting on a thin layer of 1% agarose in phosphate-buffered saline. Cells were imaged with an Olympus BX100 fitted with a 100 × Plan Apochromat objective (N.A. 1.4) and a GFP filter set (Chroma). Images were acquired with CellSens Dimension version 2 software (Evident Corporation, Tokyo, Japan).

In data set [4] the test system is B. subtilis strain WM5126. Description: Spot viability assay on solid medium. Format: cell-based, Bacillus subtilis. The note with it: more potent compounds, Figure 4A. An excerpt:
(§3) We further evaluated the most promising compounds on B. subtilis, a model Gram-positive species used previously in evaluating other benzamides, including by our research group. The B. subtilis strain WM5126 expresses a xylose-inducible GFP-tagged ZapA protein. […] We first tested the effects of the compounds on colony viability on solid medium (Figure 4). […] MIC values from microdilution experiments, shown in the right column in Figure 4, largely mirrored the spot viability data.
(§4) The B. subtilis strain used was WM5126 (JH642 amyE::Pxyl-gfp-zapA). For spot viability assays on plates, compounds were diluted from DMSO stocks into molten LB agar and mixed well before solidifying. To assess viability, cells were grown until the early log phase, and then 10-fold serial dilutions of the culture in LB were spotted onto LB agar plates containing the indicated final concentration of the compounds. The plates were incubated overnight at 30 °C and photographed. Microdilution assays to obtain MICs were performed essentially as described for E. coli.

The test system of data set [5] is human MRC-5 cells. Description: MTT cytotoxicity assay. The class given is cell-based. The following applies: MRC-5, MTT assay.
Text: as §1
Normal human lung fibroblasts (MRC-5) were grown in Dulbecco’s Modified Eagle’s medium (DMEM) supplemented with 10% heat-inactivated fetal calf serum (FCS), 100 U/mL penicillin, and […] streptomycin.
Compounds showing promising antibacterial activity were serially diluted in DMEM and tested for cytotoxicity on MRC-5 cells using the MTT assay (Sigma, St Louis, MO, USA), following the same protocol we previously reported.

In data set [6] the test system is B. subtilis strain WM5126. Description: MIC from broth microdilution. The class given is cell-based, Bacillus subtilis. The note with it: Bacillus subtilis.
Text: as §3, §4
For orientation: Dilution methods test growth across graded concentrations, often in twofold steps.

The subject of data set [7] is MDRSA 12.1. Description: MIC, broth dilution, MDRSA 12.1. The class given is cell-based, Staphylococcus aureus. The note with it: Staphylococcus aureus, MDRSA 12.1 clinical isolate.
Text: as §1, §2

In data set [8] the test system is E. coli FtsZ. More on the design: method as in PMID 37634788. The note with it: in words; cited from earlier work.

≈ marks a conversion by molar mass, not a printed value. Like-named read-outs stand apart in the source and are kept apart here.

On to `NC(=O)c1c(F)ccc(OC[C@H](O)[C@H]2COc3cc4c(cc3O2)CCCC4)c1F` (relative stereo) [FZ116], for which the MIC in data set [1] (20 h, MSSA ATCC 29213, 20 h at 35 °C, read-out: MIC) was 4.9 µM (≈ 1.99 µg/mL); in data set [1] (read-out: MIC vs S. aureus), 4.9 µM (≈ 1.99 µg/mL); in data set [2], 4.9 µM (≈ 1.99 µg/mL); in data set [6], under 0.24 µg/mL; in data set [6] (value in brackets), under 0.6 µM; in data set [7], 4.9 µM (≈ 1.99 µg/mL). In data set [3], the “FtsZ ring / GFP-ZapA pattern” value is reported as “largely disrupted”. Moreover, in data set [4], the “colony viability on solid medium, in words” value is “killed B. subtilis at the lowest doses”. In data set [5], this molecule showed a TD90 of 468.7 µM. In addition, the “in vitro inhibition of E. coli FtsZ” value in data set [8] is on record as “very strong”.
